In ChEMBL document CHEMBL3886684, “Azole compounds as PIM inhibitors” (2016):
pIC50: −log10 of the molar value.

Target: Serine/threonine-protein kinase pim-2 (Homo sapiens, UniProt Q9P1W9)
Assay: The phosphorylation of biotinylated-BAD (S112) peptide by full length recombinant Pim-1, Pim-2, or Pim-3 protein was detected with streptavidin:Allophycocyanin (APC) conjugate and a europium (Eu) labeled antibody directed against phosphorylated-BAD (S112). […] A reference compound was included on each assay plate in order to validate that plate; on

Sequence of Serine/threonine-protein kinase pim-2 (Q9P1W9 whole entry): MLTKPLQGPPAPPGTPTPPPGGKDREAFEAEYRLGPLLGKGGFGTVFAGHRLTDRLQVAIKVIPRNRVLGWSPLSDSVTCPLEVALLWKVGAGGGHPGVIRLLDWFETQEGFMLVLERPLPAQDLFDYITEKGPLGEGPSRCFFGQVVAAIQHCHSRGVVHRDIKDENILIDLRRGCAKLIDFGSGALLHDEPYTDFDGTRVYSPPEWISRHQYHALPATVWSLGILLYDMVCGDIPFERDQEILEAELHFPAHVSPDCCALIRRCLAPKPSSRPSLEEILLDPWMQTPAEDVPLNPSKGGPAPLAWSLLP

pIC50: 6.13
SMILES: CC(C)(C)Nc1nnc(-c2ccc3[nH]cc(C4=CCOCC4)c3c2)o1
